Assay results reported in patent US7303921B2, “Method to assay coenzyme Q10 in blood plasma or blood serum” (priority 2002, dated 2007).
Values joined by “and” are separate entries in the source; they are usually repeats but may differ in a detail not shown here. Equal entries are not always repeated.

Assays:
[1] = Stability of the n-propanol extract (supernatant) of plasma CoQ10; type: physicochemical
Protocol: (§1) Description of the Analysis. 200 μl of a blood plasma sample were supplemented with 50 μl of a 1,4 benzoquinone solution (2 mg/ml) in a test tube and vortexed for 10 seconds. After 10 minutes, 1 ml of n-propanol was added. The test tube was vortexed for 10 seconds and centrifuged at 10,000 rpm for 2 minutes in order to spin down the protein precipitate. 200 μl of the supernatant were injected into the HPLC. […] Mobile phase was constituted by ethanol-methanol (65%-35%) and the flux was 1 ml/min. UV detection was performed at 275 nm.
For practical reasons the propanol extract can be kept in the refrigerator up to 3 days before injection into the HPLC. Several samples were checked by analysing them 1 hour, 1, 2 and 4 days after drawing the blood, keeping the samples at −20° C., 0-4° C., or +22° C. (room temperature) and the results, as far as total CoQ10 was concerned, were the same for the same sample whether kept at different temperatures or for different lengths of time (presumably only the reduced/oxidised CoQ10 ratio changed). There was no need to add any stabilizing agent to the sample.

[2] = Stability of total CoQ10 in plasma at different storage conditions and times; type: physicochemical, human
Protocol: In order to check the stability of total CoQ10 in plasma, aliquots of 3 different samples were kept for 3 days at 4° C., room temperature (22° C.) and at −20° C. respectively.
as §1

stability of supernatant (propanol extract) ([1]; capped test tube, kept at 22° C.): stable for up to three days
time the propanol extract can be kept before injection into the HPLC ([1]; in the refrigerator): up to 3 days
Mean total CoQ10 ([2]; 0-4° C., 72 h, plasma samples A, B, C): 1.82 µM and 1.11 µM
total CoQ10 result after storage of samples ([2]; 1 hour, 1, 2 and 4 days after drawing the blood, −20° C., 0-4° C. or +22° C., no stabilizing agent): the same
SMILES: COC1=C(OC)C(=O)C(C/C=C(\C)CC/C=C(\C)CC/C=C(\C)CC/C=C(\C)CC/C=C(\C)CC/C=C(\C)CC/C=C(\C)CC/C=C(\C)CC/C=C(\C)CCC=C(C)C)=C(C)C1=O [CoQ10]
stability of total CoQ10 in plasma ([2]; even when kept at room temperature): practically stable for at least three days
